Test results as given in patent US12522597B2, “Methods and compositions for modulating splicing” (Skyhawk Therapeutics, Inc., priority 2019, dated 2026).
Read-outs that look alike come from different tables or passages of the source.

Columns and labels:
[1] = system: MDR1-MDCK cell monolayers; test: MDCK-MDR1 permeability assay (BBB penetration potential); type: in vitro ADME; details: dog, MDCK-MDR1, 120 min, 5 μM, pH 7.4
Experimental: (§1) Each determination is performed in duplicate. […] Analytical conditions are outlined below.

[2] = system: MDR1; test: as above; type: in vitro ADME; details: dog; for efflux ratio at 120 min, 5 μM: MDCK-MDR1, pH 7.4, MDCK-MDR1: Efflux; for Papp A→B at 120 min, 5 μM: MDCK-MDR1, pH 7.4, MDCK-MDR1: Papp A-B; for Papp B→A at 120 min, 5 μM: MDCK-MDR1, pH 7.4, MDCK-MDR1: Papp B-A
Experimental: as §1

[3] = system: Huntingtin (HTT) transcripts; test: Quantitative splicing assay (HTT), qPCR; type: cell-based; details: Homo sapiens, GM04724 (CAG 70/20) Huntington's disease patient lymphoblasts, 24 h
Procedure, shortened: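 Read-out is TaqMan qPCR on cDNA, quantifying inclusion of a cryptic exon within HTT intron 49. Cells were Huntington's patient lymphoblasts GM04724 (CAG 70/20), treated for 24 h at 0.15 nM–2.5 uM compound in 0.1% DMSO.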

[4] = system: mHTT protein; test: mHTT protein assay (2B7-MW1, Mesoscale Discovery); type: cell-based, human; details: GM04724 (CAG 70/20) Huntington's disease patient lymphoblast cells, 48 hours, 2B7-MW1 MSD; read-out: HTT Potency - Protein EC50 mHTT (average)
Procedure, shortened: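 mHTT levels were read with the 2B7-MW1 antibody pair (N17 and polyQ epitopes) on MSD after 48 h dosing, 10 μM–0.6 nM. Cells were GM04724 HD lymphoblasts (CAG 70/20). A replica plate was read by CTG for cell viability.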

[5] = qPCR HTTex49_50, read-out: HTT Potency - Splicing: E49-50 EC50 (average)
[6] = qPCR cryptic exon 49b inclusion, read-out: HTT Potency - Splicing: E49b EC50 (average)

SMILES	MDCK-MDR1: % Recov A-B [1] [%]	MDCK-MDR1: % Recov B-A [1] [%]	efflux ratio at 120 min, 5 μM [2]	Papp A→B at 120 min, 5 μM [2] [×10⁻⁶ cm/s]	Papp B→A at 120 min, 5 μM [2] [×10⁻⁶ cm/s]	EC50 [3, 5] [nM]	EC50 [3, 6] [nM]	EC50 [4] [nM]	MDCK-MDR1: Efflux [1]	MDCK-MDR1: Papp A-B [1]	MDCK-MDR1: Papp B-A [1]
Cc1nc(-c2ccc(-c3ccc(O[C@H]4C[C@@H]5CCC[C@@H](N5)[C@H]4F)nn3)c(O)c2)cs1 (single isomer, unassigned) [71-ENT1]	47	60	4	4.96	18.6	16 to 50	16 to 50	16 to 50			
Cn1cc(-c2cc(O)c(-c3ccc(O[C@H]4C[C@@H]5CCC[C@@H](N5)[C@H]4F)nn3)cn2)cn1 (single isomer, unassigned) [64-ENT2]	92	97	50	0.21	10.7	501 to 10000	501 to 10000	501 to 10000			
Cn1ccc2cc(-c3ccc(O[C@H]4C[C@@H]5CC[C@@H](N5)[C@H]4F)nn3)c(O)cc2c1=O (single isomer, unassigned) [126-ENT1]	100	95	14	3.5	48.3	101 to 500	51 to 100	16 to 50			
Cn1ccc(-c2ccc(-c3ccc(O[C@H]4C[C@]5(C)CCC[C@@](C)(N5)[C@H]4F)nn3)c(O)c2)cc1=O (single isomer, unassigned) [149-ENT1]	76	79	22	2.23	48.6	51 to 100	16 to 50	16 to 50			
Cc1ncc(-c2ccc(-c3ccc(O[C@H]4C[C@@H]5CCC[C@@H](N5)[C@H]4F)nn3)c(O)c2)s1 (single isomer, unassigned) [96-ENT2]	35	67	2	6.73	11.6	16 to 50	16 to 50	16 to 50			
COc1cc(-c2ccc(-c3ccc(O[C@H]4C[C@]5(C)CC[C@@](C)(N5)[C@H]4F)nn3)c(O)c2)cnn1 (single isomer, unassigned) [157-ENT2]	82	81	5	6.79	36.1	16 to 50	16 to 50	16 to 50			
Cn1cc(-c2ccc(-c3ccc(O[C@H]4C[C@@H]5CCC[C@@H](N5)[C@H]4F)nn3)c(O)c2)cn1 (single isomer, unassigned) [1-ENT2]	76	83	6	6.05	33.7	16 to 50	16 to 50	0.01 to 15			
Oc1cc(-c2nncs2)ccc1-c1ccc(O[C@H]2C[C@@H]3CCC[C@@H](N3)[C@H]2F)nn1 (single isomer, unassigned) [116-ENT2]	90	95	5	11.3	61.4	101 to 500	101 to 500	16 to 50			
Oc1cc(-n2ccc(F)n2)ccc1-c1ccc(O[C@@H]2C[C@H]3CCC[C@H](N3)[C@@H]2F)nn1 (single isomer, unassigned) [115-ENT1]	44	70	3	7.15	20.3	0.01 to 15	0.01 to 15	16 to 50			
Cn1cc(-c2ccc(-c3ccc(O[C@H]4C[C@H]5CCC[C@H](N5)[C@@H]4F)nn3)c(O)c2)cn1 (single isomer, unassigned) [121-ENT1]	66	73	5	11	50.3	501 to 10000	501 to 10000	501 to 10000			
Cn1cc(-c2ccc(-c3ccc(O[C@@H]4C[C@@]5(C)CCC[C@](C)(N5)[C@@H]4F)nn3)c(O)c2)cn1 (single isomer, unassigned) [154-ENT2]	81	92	3	6.92	22	16 to 50	0.01 to 15	16 to 50			
Cn1ccc2cc(O)c(-c3ccc(O[C@H]4C[C@@H]5CCC[C@@H](N5)[C@H]4F)nn3)cc2c1=O (single isomer, unassigned) [128-ENT1]			7	5.27	38.6	51 to 100	51 to 100	16 to 50	11	5.78 10^−6, cm/s	65.2 10^−6, cm/s
Cn1ccc2cc(-c3ccc(O[C@@H]4C[C@H]5CC[C@H](N5)[C@@H]4F)nn3)c(O)cc2c1=O (single isomer, unassigned) [126-ENT2]	93	92	13	3.51	45.5	501 to 10000	101 to 500	101 to 500			
Cn1ccc2cc(O)c(-c3ccc(O[C@H]4C[C@]5(C)CC[C@@](C)(N5)[C@H]4F)nn3)cc2c1=O (single isomer, unassigned) [130-ENT1]	78	80	6	7.86	43.7	51 to 100	16 to 50	0.01 to 15			
Oc1cc(-c2cn[nH]c2)c(F)cc1-c1ccc(O[C@H]2C[C@@H]3CCC[C@@H](N3)[C@H]2F)nn1 (single isomer, unassigned) [56-ENT2]	68	79	13	2.69	36	0.01 to 15	0.01 to 15	0.01 to 15			
COc1cc(-c2ccc(-c3ccc(O[C@H]4C[C@@H]5CCC[C@@H](N5)[C@H]4F)nn3)c(O)c2)cnn1 (single isomer, unassigned) [76-ENT2]	82	85	10	4.19	39.9	0.01 to 15	0.01 to 15	0.01 to 15			
Cn1cc(-c2cc(O)c(-c3ccc(O[C@@H]4C[C@H]5CCC[C@H](N5)[C@@H]4F)nn3)cn2)cn1 (single isomer, unassigned) [64-ENT1]	99	101	68	0.18	12.4	501 to 10000	501 to 10000	501 to 10000			
